# Test results from patent US20220324865A1 (Bayer Aktiengesellschaft, priority 2018, published 2022).
# Biological target: T1, human EP3 receptor (Homo sapiens, UniProt P43115)
# T1 construct: expressed in transfected cells; host or cells: CHO K1 (Chinese Hamster Ovary), stably co-transfected with Galpha16 and mitochondrial clytin
# T1 sequence (P43115 1-390): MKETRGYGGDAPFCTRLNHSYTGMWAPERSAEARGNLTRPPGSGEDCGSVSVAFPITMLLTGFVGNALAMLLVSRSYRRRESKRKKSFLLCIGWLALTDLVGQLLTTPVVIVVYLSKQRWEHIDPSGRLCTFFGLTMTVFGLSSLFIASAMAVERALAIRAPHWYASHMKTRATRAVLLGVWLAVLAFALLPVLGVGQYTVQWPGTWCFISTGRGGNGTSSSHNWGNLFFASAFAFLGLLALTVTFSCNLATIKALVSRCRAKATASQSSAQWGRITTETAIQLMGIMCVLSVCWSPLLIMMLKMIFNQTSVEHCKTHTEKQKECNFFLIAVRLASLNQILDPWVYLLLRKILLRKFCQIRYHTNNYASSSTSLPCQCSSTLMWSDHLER
# Experiment: Cellular in vitro assay for determining EP3 receptor activity (human EP3 cell line, sulprostone-stimulated calcium luminescence)
# Assay type: cell-based
# Details: CHO cells expressing human EP3 and mitochondrial Clytin; antagonist mode, sulprostone at EC50; read-out: EP3 CHO mtCLY ANTAG IC50
# Method in brief: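 Antagonist activity was measured as inhibition of the luminescent calcium signal elicited by EC50 sulprostone, following 10 min compound pretreatment. The cell line was recombinant CHO K1 co-expressing human EP3, Gα16 and the photoprotein Clytin, reconstituted with coelenterazine.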
row,Structure (SMILES),IC50
1,Cc1cc(-c2cn3nc(C(=O)N[C@H](C)C4CC4)c(C(F)(F)F)c3c(=O)[nH]2)ccc1Cl [6-218],1.95 nM
2,Cc1cc(-c2cn3nc(C(=O)NC4CC(F)(F)C4)c(C(F)(F)F)c3c(=O)[nH]2)ccc1Cl [6-225],7.4 nM
3,CC[C@@H](C)NC(=O)c1nn2cc(-c3ccc(Cl)c(C)c3)[nH]c(=O)c2c1C(F)(F)F [6-227],6.67 nM
4,Cc1cc(-c2cn3nc(C(=O)N[C@H](CN4CC(F)C4)c4ccc(F)cc4)c(C(F)(F)F)c3c(=O)[nH]2)ccc1Cl [6-231],3.25 nM
5,Cc1cc(-c2cn3nc(C(=O)NC4(c5ccc(F)cc5)CN(CC(F)(F)F)C4)c(C(F)(F)F)c3c(=O)[nH]2)ccc1Cl [6-237],1.9 nM
6,Cc1cc(-c2cn3nc(C(=O)NC4(c5ccc(F)cc5)CN(CC(F)F)C4)c(C(F)(F)F)c3c(=O)[nH]2)ccc1Cl [6-239],3.1 nM
7,Cc1ccc(-c2cn3nc(C(=O)N[C@@H](c4ccc(F)cc4)C(C)(C)O)c(C4CC4)c3c(=O)[nH]2)cc1C(F)(F)F [6-246],5.8 nM
8,Cc1ccc(-c2cn3nc(C(=O)N[C@@H](C)C(C)(C)C)c(C4CC4)c3c(=O)[nH]2)cc1Cl [6-253],4.75 nM
9,Cc1ccc(-c2cn3nc(C(=O)N[C@@H](C)C4CC4)c(C4CC4)c3c(=O)[nH]2)cc1Cl [6-254],2.3 nM
10,COc1ccc(C2(NC(=O)c3nn4cc(-c5ccc(C)c(Cl)c5)[nH]c(=O)c4c3C3CC3)CN(C)C2)cc1 [6-257],3.3 nM
11,Cc1ccc(-c2cn3nc(C(=O)NCC(O)(C(F)(F)F)C(F)(F)F)c(C4CC4)c3c(=O)[nH]2)cc1Cl [6-261],2.7 nM
12,Cc1ccc(-c2cn3nc(C(=O)NC4(c5ccc(F)cc5)CN(C)C4)c(C4CC4)c3c(=O)[nH]2)cc1Cl [6-262],2.8 nM
13,Cc1ccc(-c2cn3nc(C(=O)N[C@@H](C)CCO)c(C4CC4)c3c(=O)[nH]2)cc1Cl [6-270],2.67 nM
14,Cc1ccc(-c2cn3nc(C(=O)N[C@@H](C4CC4)C(C)(C)O)c(C4CC4)c3c(=O)[nH]2)cc1Cl [6-275],2.85 nM
15,COC[C@H](NC(=O)c1nn2cc(-c3ccc(C)c(Cl)c3)[nH]c(=O)c2c1C1CC1)c1ccccc1 [6-277],4.1 nM
16,Cc1ccc(-c2cn3nc(C(=O)N[C@H](C)C(C)(C)C)c(C4CC4)c3c(=O)[nH]2)cc1Cl [6-281],2.05 nM
17,CC[C@H](C)NC(=O)c1nn2cc(-c3ccc(C)c(Cl)c3)[nH]c(=O)c2c1C1CC1 [6-282],1.6 nM
18,Cc1ccc(-c2cn3nc(C(=O)NCC(C)(C)O)c(C4CC4)c3c(=O)[nH]2)cc1Cl [6-285],3.35 nM
19,Cc1cc(-c2cn3nc(C(=O)N[C@@H](C)C4CC4)c(C4CC4)c3c(=O)[nH]2)ccc1Cl [6-296],1.6 nM
20,Cc1cc(-c2cn3nc(C(=O)N[C@@H](C)C(C)C)c(C4CC4)c3c(=O)[nH]2)ccc1Cl [6-302],2.95 nM
21,COc1ccc(C2(NC(=O)c3nn4cc(-c5ccc(Cl)c(C)c5)[nH]c(=O)c4c3C3CC3)CN(C)C2)cc1 [6-303],2.9 nM
22,Cc1cc(-c2cn3nc(C(=O)NCC(O)(C(F)(F)F)C(F)(F)F)c(C4CC4)c3c(=O)[nH]2)ccc1Cl [6-305],2.95 nM
23,Cc1cc(-c2cn3nc(C(=O)N[C@@H](c4ccc(F)cc4)[C@H](O)C(F)(F)F)c(C4CC4)c3c(=O)[nH]2)ccc1Cl [6-315],2 nM
24,Cc1cc(-c2cn3nc(C(=O)N[C@H](C)C(C)(C)C)c(C4CC4)c3c(=O)[nH]2)ccc1Cl [6-318],3.2 nM
25,CC[C@H](C)NC(=O)c1nn2cc(-c3ccc(Cl)c(C)c3)[nH]c(=O)c2c1C1CC1 [6-331],4.85 nM
26,CC[C@@H](C)NC(=O)c1nn2cc(-c3ccc(Cl)c(C)c3)[nH]c(=O)c2c1C1CC1 [6-332],2 nM
27,Cc1cc(-c2cn3nc(C(=O)NC4(c5ccc(F)cc5)CN(C)C4)c(C4CC4)c3c(=O)[nH]2)ccc1Cl [6-333],4 nM
28,Cc1cc(-c2cn3nc(C(=O)N[C@H](C)C4CC4)c(C4CC4)c3c(=O)[nH]2)ccc1Cl [6-335],1.8 nM
29,Cc1cc(-c2cn3nc(C(=O)N[C@H](C)C(C)C)c(C4CC4)c3c(=O)[nH]2)ccc1Cl [6-336],3.45 nM
30,Cc1cc(-c2cn3nc(C(=O)N[C@H](CN4CCC(F)(F)C4)c4ccc(F)cc4)c(C4CC4)c3c(=O)[nH]2)ccc1Cl [6-339],7.15 nM

# More lines, now with the values ahead:
row,IC50,Structure (SMILES)
1,1.18 nM,Cc1cc(-c2cn3nc(C(=O)NC(C)(C)C4CC4)c(C(F)(F)F)c3c(=O)[nH]2)ccc1Cl [6-220]
2,1.6 nM,Cc1cc(-c2cn3nc(C(=O)NC4(c5ccccc5)CCOCC4)c(C(F)(F)F)c3c(=O)[nH]2)ccc1Cl [6-230]
3,0.37 nM,Cc1cc(-c2cn3nc(C(=O)N[C@H](CCO)c4ccc(F)cc4)c(C(F)(F)F)c3c(=O)[nH]2)ccc1Cl [6-233]
4,1.4 nM,Cc1cc(-c2cn3nc(C(=O)NC4(c5ccc(F)cc5)CN(C5CC5)C4)c(C(F)(F)F)c3c(=O)[nH]2)ccc1Cl [6-238]
5,0.84 nM,Cc1ccc(-c2cn3nc(C(=O)N[C@@H](C)C(C)C)c(C4CC4)c3c(=O)[nH]2)cc1Cl [6-252]
6,0.95 nM,Cc1ccc(-c2cn3nc(C(=O)NC4CC(F)(F)C4)c(C4CC4)c3c(=O)[nH]2)cc1Cl [6-255]
7,1.1 nM,Cc1ccc(-c2cn3nc(C(=O)N[C@@H](c4ccc(F)cc4)C(F)(F)CO)c(C4CC4)c3c(=O)[nH]2)cc1Cl [6-256]
8,0.87 nM,CC[C@@H](C)NC(=O)c1nn2cc(-c3ccc(C)c(Cl)c3)[nH]c(=O)c2c1C1CC1 [6-271]
9,1.22 nM,Cc1ccc(-c2cn3nc(C(=O)N[C@@H](c4ccc(F)cc4)[C@H](O)C(F)(F)F)c(C4CC4)c3c(=O)[nH]2)cc1Cl [6-272]
10,1.1 nM,Cc1ccc(-c2cn3nc(C(=O)N[C@@H](c4ccc(F)cc4)[C@@H](O)C(F)(F)F)c(C4CC4)c3c(=O)[nH]2)cc1Cl [6-273]
11,1.3 nM,Cc1ccc(-c2cn3nc(C(=O)N[C@H](C)C(C)C)c(C4CC4)c3c(=O)[nH]2)cc1Cl [6-274]
12,0.49 nM,Cc1ccc(-c2cn3nc(C(=O)NC(C)C4CCC4)c(C4CC4)c3c(=O)[nH]2)cc1Cl (centres unmarked) [6-279]
13,1.5 nM,Cc1ccc(-c2cn3nc(C(=O)NC(C)(C)C4CC4)c(C4CC4)c3c(=O)[nH]2)cc1Cl [6-280]
14,0.41 nM,Cc1ccc(-c2cn3nc(C(=O)N[C@H](C)C4CC4)c(C4CC4)c3c(=O)[nH]2)cc1Cl [6-283]
15,1.15 nM,Cc1cc(-c2cn3nc(C(=O)NC4CC(F)(F)C4)c(C4CC4)c3c(=O)[nH]2)ccc1Cl [6-297]
16,1.4 nM,Cc1cc(-c2cn3nc(C(=O)NC(C)(C)C4CC4)c(C4CC4)c3c(=O)[nH]2)ccc1Cl [6-301]
17,0.65 nM,COC[C@H](NC(=O)c1nn2cc(-c3ccc(Cl)c(C)c3)[nH]c(=O)c2c1C1CC1)c1ccccc1 [6-304]
18,0.74 nM,Cc1cc(-c2cn3nc(C(=O)N[C@@H](c4ccc(F)cc4)[C@@H](O)C(F)(F)F)c(C4CC4)c3c(=O)[nH]2)ccc1Cl [6-316]
19,0.48 nM,CC[C@@H](COC)NC(=O)c1nn2cc(-c3ccc(Cl)c(C)c3)[nH]c(=O)c2c1C1CC1 [6-327]
20,1.5 nM,Cc1cc(-c2cn3nc(C(=O)N[C@H](CN4CCOCC4)c4ccc(F)cc4)c(C4CC4)c3c(=O)[nH]2)ccc1Cl [6-337]
21,1.02 nM,Cc1cc(-c2cn3nc(C(=O)NC4(c5ccc(F)cc5)CN(CC(F)F)C4)c(C4CC4)c3c(=O)[nH]2)ccc1Cl [6-340]
22,1.07 nM,Cc1cc(-c2cn3nc(C(=O)NC4(c5ccccc5)CCOCC4)c(C4CC4)c3c(=O)[nH]2)ccc1Cl [6-342]
23,0.28 nM,Cc1cc(-c2cn3nc(C(=O)N[C@H](CCO)c4ccc(F)cc4)c(C4CC4)c3c(=O)[nH]2)ccc1Cl [6-343]
